Source: patent publication US12201633B2, “Compounds and methods for treatment of visceral pain” (Arena Pharmaceuticals, Inc., priority 2017, dated 2025)
pEC50: −log10 of the molar value.

Columns and labels:
human CB2 receptor [1] = biological target: T1, human CB2 receptor (Homo sapiens, UniProt P34972); assay: HTRF assay for direct cAMP measurement, CB2; assay type: cell-based; set-up: 93-0164 (CHO-K1 EA-Arrestin parental line); host or cells: CHO-K1 EA-Arrestin, clone #61
human CB2 receptor [2] = biological target: T1, human CB2 receptor; assay: PathHunter β-arrestin assay, CB2
[3] = read-out: EC50 hCB2, β-arrestin, CHO-K1 cells, Table B-2

T1 sequence (P34972 whole entry): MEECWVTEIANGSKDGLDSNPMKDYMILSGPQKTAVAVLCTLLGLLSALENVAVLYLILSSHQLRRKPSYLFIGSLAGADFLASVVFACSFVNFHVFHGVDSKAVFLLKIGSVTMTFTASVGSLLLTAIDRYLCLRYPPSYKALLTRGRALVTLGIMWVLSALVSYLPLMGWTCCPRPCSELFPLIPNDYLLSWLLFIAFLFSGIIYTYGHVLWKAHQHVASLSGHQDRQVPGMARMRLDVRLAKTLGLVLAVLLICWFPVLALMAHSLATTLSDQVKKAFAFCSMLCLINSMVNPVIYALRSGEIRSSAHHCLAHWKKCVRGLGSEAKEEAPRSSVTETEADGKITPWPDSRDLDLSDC

Row | Structure (SMILES) | pEC50 (human CB2 receptor [1]) | pEC50 (human CB2 receptor [2]) | pEC50 (human CB2 receptor [2]; [3])
1 | CC(C)(C)[C@@H](CO)NC(=O)c1nn(-c2cnccn2)c2c1C[C@@H]1C[C@H]21 [Compound 696, (1aS,5aS)-2-Pyrazin-2-yl-1a,2,5,5a-tetrahydro-1H-2,3-diaza-cyclopropa[a]pentalene-4-carboxylic acid ((S)-1-hydroxymethyl-2,2-dimethyl-propyl)-amide] | 8.16 | 7.31 | 
2 | CC(C)[C@@H](C)NC(=O)c1nn(-c2c[n+]([O-])ccn2)c2c1C[C@@H]1C[C@H]21 [Compound 912, (1aS,5aS)-2-(4-Oxy-pyrazin-2-yl)-1a,2,5,5a-tetrahydro-1H-2,3-diaza-cyclopropa[a]pentalene-4-carboxylic acid ((R)-1,2-dimethyl-propyl)-amide] |  | 8.02 | 
3 | COC(=O)C(NC(=O)c1nn(-c2c[n+]([O-])ccn2)c2c1C[C@H]1C[C@@H]21)c1ccccn1 (stereo partly drawn) [Compound 711, {[(1aR,5aR)-2-(4-Oxy-pyrazin-2-yl)-1a,2,5,5a-tetrahydro-1H-2,3-diaza-cyclopropa[a]pentalene-4-carbonyl]-amino}-pyridin-2-yl-acetic acid methyl ester] |  | 7.55 | 
4 | O=C(NC1(CO)CC1)c1nn(-c2ccc(Cl)cc2Cl)c2c1C[C@H]1C[C@@H]21 [Compound 174, (1aR,5aR)-2-(2,4-Dichloro-phenyl)-1a,2,5,5a-tetrahydro-1H-2,3-diaza-cyclopropa[a]pentalene-4-carboxylic acid (1-hydroxymethyl-cyclopropyl)-amide] | 7.42 | 6.78 | 
5 | O=C(NC1(C(F)(F)F)CC1)c1nn(-c2cnccn2)c2c1C[C@@H]1C[C@H]21 [Compound 930, (1aS,5aS)-2-Pyrazin-2-yl-1a,2,5,5a-tetrahydro-1H-2,3-diaza-cyclopropa[a]pentalene-4-carboxylic acid (1-trifluoromethyl-cyclopropyl)-amide] |  | 7.77 | 
6 | O=C(NC1(c2ccccn2)CCC1)c1nn(-c2c[n+]([O-])ccn2)c2c1C[C@@H]1C[C@H]21 [Compound 700, (1aS,5aS)-2-(4-Oxy-pyrazin-2-yl)-1a,2,5,5a-tetrahydro-1H-2,3-diaza-cyclopropa[a]pentalene-4-carboxylic acid (1-pyridin-2-yl-cyclobutyl)-amide] | 8.50 | 7.50 | 
7 | O=C(N[C@H](CO)C1CCOCC1)c1nn(-c2cnccn2)c2c1C[C@H]1C[C@@H]21 [Compound 684, (1aR,5aR)-2-Pyrazin-2-yl-1a,2,5,5a-tetrahydro-1H-2,3-diaza-cyclopropa[a]pentalene-4-carboxylic acid ((S)-2-hydroxy-1-tetrahydro-pyran-4-yl-ethyl)-amide] | 8.15 | 7.23 | 
8 | CC(C)(COP(=O)(O)O)NC(=O)c1nn(-c2cc(C#N)ccn2)c2c1C[C@H]1C[C@@H]21 [Compound 646, Phosphoric acid mono-(2-{[(1aR,5aR)-2-(4-cyano-pyridin-2-yl)-1a,2,5,5a-tetrahydro-1H-2,3-diaza-cyclopropa[a]pentalene-4-carbonyl]-amino}-2-methyl-propyl) ester] |  | 6.03 | 
9 | CC(C)[C@H](N)C(=O)OC[C@@H](NC(=O)c1nn(-c2c[n+]([O-])ccn2)c2c1C[C@@H]1C[C@H]21)C(C)(C)C [Compound 848, (1aS,5aS)—(S)-2-Amino-3-methyl-butyric acid (S)-3,3-dimethyl-2-{[2-(4-oxy-pyrazin-2-yl)-1a,2,5,5a-tetrahydro-1H-2,3-diaza-cyclopropa[a]pentalene-4-carbonyl]-amino}-butyl ester] |  | 7.30 | 
10 | CC(C)(CO)NC(=O)c1nn(-c2ccc(F)cc2F)c2c1C1CC1C2 (centres unmarked) [Compound 515, 1-(2,4-Difluoro-phenyl)-3b,4,4a,5-tetrahydro-1H-cyclopropa[3,4]cyclopenta[1,2-c]pyrazole-3-carboxylic acid (2-hydroxy-1,1-dimethyl-ethyl)-amide] | 8.36 |  | 
11 | CC(C)(C)[C@H](NC(=O)c1nn(-c2c[n+]([O-])ccn2)c2c1C[C@@H]1C[C@H]21)c1ccccn1 [Compound 767, (1aS,5aS)-2-(4-Oxy-pyrazin-2-yl)-1a,2,5,5a-tetrahydro-1H-2,3-diaza-cyclopropa[a]pentalene-4-carboxylic acid ((S)-2,2-dimethyl-1-pyridin-2-yl-propyl)-amide] |  | 7.18 | 
12 | CC(C)(C)NNC(=O)c1nn(-c2c[n+]([O-])ccn2)c2c1C[C@@H]1C[C@H]21 [Compound 902, (1aS,5aS)-2-(4-Oxy-pyrazin-2-yl)-1a,2,5,5a-tetrahydro-1H-2,3-diaza-cyclopropa[a]pentalene-4-carboxylic acid N′-tert-butyl-hydrazide] |  | 7.11 | 
13 | O=C(N[C@H](CO)c1ccccc1)c1nn(-c2c[n+]([O-])ccn2)c2c1C[C@@H]1C[C@H]21 [Compound 913, (1aS,5aS)-2-(4-Oxy-pyrazin-2-yl)-1a,2,5,5a-tetrahydro-1H-2,3-diaza-cyclopropa[a]pentalene-4-carboxylic acid ((S)-2-hydroxy-1-phenyl-ethyl)-amide] |  |  | 6.98
14 | CC(C)(CO)NC(=O)c1nn(-c2cc(F)ccn2)c2c1C[C@H]1C[C@@H]21 [Compound 931, (1aR,5aR)-2-(4-Fluoro-pyridin-2-yl)-1a,2,5,5a-tetrahydro-1H-2,3-diaza-cyclopropa[a]pentalene-4-carboxylic acid (2-hydroxy-1,1-dimethyl-ethyl)-amide] |  | 7.68 | 
15 | CNC(=O)[C@@H](NC(=O)c1nn(-c2c[n+]([O-])ccn2)c2c1C[C@H]1C[C@@H]21)c1ccccc1 [Compound 722, (1aR,5aR)-2-(4-Oxy-pyrazin-2-yl)-1a,2,5,5a-tetrahydro-1H-2,3-diaza-cyclopropa[a]pentalene-4-carboxylic acid ((S)-methylcarbamoyl-phenyl-methyl)-amide] |  | 7.47 | 
16 | O=C(NC1(C(F)(F)F)CCC1)c1nn(-c2cnccn2)c2c1C[C@@H]1C[C@H]21 [Compound 926, (1aS,5aS)-2-Pyrazin-2-yl-1a,2,5,5a-tetrahydro-1H-2,3-diaza-cyclopropa[a]pentalene-4-carboxylic acid (1-trifluoromethyl-cyclobutyl)-amide] | 9.70 | 8.35 | 
17 | CC(C)(CO)NC(=O)c1nn(-c2cnc(C#N)cn2)c2c1C[C@H]1C[C@@H]21 [Compound 264, (1aR,5aR)-2-(5-Cyano-pyrazin-2-yl)-1a,2,5,5a-tetrahydro-1H-2,3-diaza-cyclopropa[a]pentalene-4-carboxylic acid (2-hydroxy-1,1-dimethyl-ethyl)-amide] | 8.00 |  | 
18 | CC(C)[C@@H](CO)NC(=O)c1nn(-c2c[n+]([O-])ccn2)c2c1C[C@H]1C[C@@H]21 [Compound 690, (1aR,5aR)-2-(4-Oxy-pyrazin-2-yl)-1a,2,5,5a-tetrahydro-1H-2,3-diaza-cyclopropa[a]pentalene-4-carboxylic acid ((S)-1-hydroxymethyl-2-methyl-propyl)-amide] | 8.75 | 7.51 | 
19 | CC(C)[C@@H](CO)NC(=O)c1nn(-c2c[n+]([O-])ccn2)c2c1C[C@@H]1C[C@H]21 [Compound 896, (1aS,5aS)-2-(4-Oxy-pyrazin-2-yl)-1a,2,5,5a-tetrahydro-1H-2,3-diaza-cyclopropa[a]pentalene-4-carboxylic acid ((S)-1-hydroxymethyl-2-methyl-propyl)-amide] |  | 7.36 | 
20 | CC(C)[C@@H](C)NC(=O)c1nn(-c2c[n+]([O-])ccn2)c2c1C[C@H]1C[C@@H]21 [Compound 828, (1aR,5aR)-2-(4-Oxy-pyrazin-2-yl)-1a,2,5,5a-tetrahydro-1H-2,3-diaza-cyclopropa[a]pentalene-4-carboxylic acid ((R)-1,2-dimethyl-propyl)-amide] |  | 8.38 | 
21 | CC(C)(C)[C@@H](NC(=O)c1nn(-c2c[n+]([O-])ccn2)c2c1C[C@@H]1C[C@H]21)c1ccccn1 [Compound 766, (1aS,5aS)-2-(4-Oxy-pyrazin-2-yl)-1a,2,5,5a-tetrahydro-1H-2,3-diaza-cyclopropa[a]pentalene-4-carboxylic acid ((R)-2,2-dimethyl-1-pyridin-2-yl-propyl)-amide] |  | 8.34 | 
22 | CC(C)(CF)NC(=O)c1nn(-c2c[n+]([O-])ccn2)c2c1C[C@@H]1C[C@H]21 [Compound 904, (1aS,5aS)-2-(4-Oxy-pyrazin-2-yl)-1a,2,5,5a-tetrahydro-1H-2,3-diaza-cyclopropa[a]pentalene-4-carboxylic acid (2-fluoro-1,1-dimethyl-ethyl)-amide] |  | 7.50 | 
23 | O=C(N[C@H]1c2ccccc2C[C@@H]1O)c1nn(-c2c[n+]([O-])ccn2)c2c1C[C@@H]1C[C@H]21 [Compound 920, (1aS,5aS)-2-(4-Oxy-pyrazin-2-yl)-1a,2,5,5a-tetrahydro-1H-2,3-diaza-cyclopropa[a]pentalene-4-carboxylic acid ((1S,2S)-2-hydroxy-indan-1-yl)-amide] |  | 8.34 | 
24 | CC(C)(C)[C@@H](COP(=O)(O)O)NC(=O)c1nn(-c2cnccn2)c2c1C[C@H]1C[C@@H]21 [Compound 683, Phosphoric acid mono-{(S)-3,3-dimethyl-2-[((1aR,5aR)-2-pyrazin-2-yl-1a,2,5,5a-tetrahydro-1H-2,3-diaza-cyclopropa[a]pentalene-4-carbonyl)-amino]-butyl} ester] |  | 5.52 | 
25 | O=C(NC1(C(F)(F)F)CC1)c1nn(-c2c[n+]([O-])ccn2)c2c1C[C@@H]1C[C@H]21 [Compound 764, (1aS,5aS)-2-(4-Oxy-pyrazin-2-yl)-1a,2,5,5a-tetrahydro-1H-2,3-diaza-cyclopropa[a]pentalene-4-carboxylic acid (1-trifluoromethyl-cyclopropyl)-amide] |  |  | 8.23
26 | CC(C)(C)[C@@H](COP(=O)(O)O)NC(=O)c1nn(-c2c[n+]([O-])ccn2)c2c1C[C@H]1C[C@@H]21 [Compound 703, Phosphoric acid mono-((S)-3,3-dimethyl-2-{[(1aR,5aR)-2-(4-oxy-pyrazin-2-yl)-1a,2,5,5a-tetrahydro-1H-2,3-diaza-cyclopropa[a]pentalene-4-carbonyl]-amino}-butyl) ester] |  | 6.22 | 
